Data from patent US20180251847A1, “METHOD OF PREDICTING THE TUMOR RESPONSE TO DNA METHYLATION INHIBITORS AND ALTERNATIVE THERAPEUTIC REGIMEN FOR OVERCOMING RESISTANCE” (PALACKY UNIVERSITY, OLOMOUC, priority 2014, published 2018).
Where a name gives a salt, the structure may show the parent alone. Read-outs that look alike come from different tables or passages of the source.

Key:
Design in all cases: species or system human
HCT116 = test: MTT based cell survival assay, parental HCT116; settings: read-out: Mean IC50
Method: To study the mechanism of resistance towards DNA methylation inhibitor, 2′-deoxy-5-azacytidine, we used the human colorectal cancer cell line (HCT116), human promyelocytic leukemia cells (HL-60), and human breast adenocarcinoma cell line (MCF-7) obtained from American Type Culture Collection (Manassas, Va.). The cell lines were cultured in complete growth media (Sigma-Aldrich, St. Louis, Mo.), supplemented with fetal bovine serum (FBS, PAN-Biotech GmbH, Aidenbach, Germany), 100 U/mL penicillin (Biotika, Slovenská L'upča, Slovak Republic) and 50 μg/mL streptomycin (Sigma-Aldrich), and the cultures were maintained at 37° C. and 5% CO2, in a humidified incubator. The cell line, HCT116 was grown in McCoy's 5 A medium supplemented with 10% FBS and 3 mM L-glutamine (Sigma-Aldrich), HL-60 was grown in Iscove's Modified Dulbecco's Medium with 20% FBS, and MCF-7 was grown in RPMI-1640 medium with 10% FBS.
The method is primarily based on reduction of yellow colored tetrazolium salt, 3-(4,5-dimethylthiazol-2-yl)-2,5-diphenyltetrazolium bromide (MTT) to insoluble purple colored formazan crystals by NAD(P)H-dependent oxidoreductase enzymes in mitochondria of the viable cell. The intensity of the purple color produced on solubilization of the formazan crystals is directly proportional to the number of viable cells (Meerloo J. V. et al., Methods in Molecular Biology 2011; 731, 237-45).
To determine the IC50 of the epigenetic drugs (Tocris Bioscience, Bristol, United Kingdom), four independent experiments were performed using triplicate wells of 96 well plates. Cells in 80 μL of medium were plated in each of the experimental and the control wells, followed by addition of 20 μL medium with five-fold drug concentration to experimental wells. The wells with medium alone were included alongside as blank for absorbance readings. […], 10 μL MTT (Sigma-Aldrich) prepared in 1×PBS (5 mg/mL) was added to all wells including blank and control, and incubated until the purple formazan crystals were visible after which 100 μL of detergent (10% SDS, pH: 5.5) was added and the plates were incubated overnight to solubilize the formazan and the cellular material.
(§1) Cross resistance was determined as the fold increase, whereas, the sensitivity was determined as the fold decrease in the IC50 of the drugs for the resistant cell lines compared to their genetically identical drug sensitive counterpart.

R1.1 (HCT116-RDAC) = test: MTT based cell survival assay, DAC resistant HCT116 clone R1.1; settings: for fold change (resistance index): IC50 R1.1 / IC50 HCT116; for IC50: read-out: Mean IC50
Method: (§2) The DAC resistant HCT116 cell lines were developed using two methods.
(§3) The method is primarily based on reduction of yellow colored tetrazolium salt, 3-(4,5-dimethylthiazol-2-yl)-2,5-diphenyltetrazolium bromide (MTT) to insoluble purple colored formazan crystals by NAD(P)H-dependent oxidoreductase enzymes in mitochondria of the viable cell.
(§4) Cells in 80 μL of medium were plated in each of the experimental and the control wells, followed by addition of 20 μL medium with five-fold drug concentration to experimental wells. The wells with medium alone were included alongside as blank for absorbance readings. After 72 h of drug treatment, 10 μL MTT (Sigma-Aldrich) prepared in 1×PBS (5 mg/mL) was added to all wells including blank and control, and incubated until the purple formazan crystals were visible after which 100 μL of detergent (10% SDS, pH: 5.5) was added and the plates were incubated overnight to solubilize the formazan and the cellular material.
as §1

R1.2 (HCT116-RDAC) = test: MTT based cell survival assay, DAC resistant HCT116 clone R1.2; settings: for fold change (resistance index): IC50 R1.2 / IC50 HCT116; for IC50: read-out: Mean IC50
Method: as §2, §3, §4, §1

R1.3 (HCT116-RDAC) = test: MTT based cell survival assay, DAC resistant HCT116 clone R1.3; settings: for fold change (resistance index): IC50 R1.3 / IC50 HCT116; for IC50: read-out: Mean IC50
Method: as §2, §3, §4, §1

R1.4 (HCT116-RDAC) = test: MTT based cell survival assay, DAC resistant HCT116 clone R1.4; settings: for fold change (resistance index): IC50 R1.4 / IC50 HCT116; for IC50: read-out: Mean IC50
Method: as §2, §3, §4, §1

R2.1 (HCT116-RDAC) = test: MTT based cell survival assay, DAC resistant HCT116 clone R2.1; settings: for fold change (resistance index): IC50 R2.1 / IC50 HCT116; for IC50: R2.1, MTT, 72 h drug treatment
Method: as §2, §3, §4, §1

R2.2 (HCT116-RDAC) = test: MTT based cell survival assay, DAC resistant HCT116 clone R2.2; settings: for fold change (resistance index): IC50 R2.2 / IC50 HCT116; for IC50: read-out: Mean IC50
Method: as §2, §3, §4, §1

[1] = HCT116 parental, MTT, 72 h drug treatment

| SMILES | IC50 (HCT116; [1]) | fold change (resistance index) (R1.1 (HCT116-RDAC)) | IC50 (R1.1 (HCT116-RDAC); R1.1, MTT, 72 h drug treatment) | fold change (resistance index) (R1.2 (HCT116-RDAC)) | IC50 (R1.2 (HCT116-RDAC); R1.2, MTT, 72 h drug treatment) | fold change (resistance index) (R1.3 (HCT116-RDAC)) | IC50 (R1.3 (HCT116-RDAC); R1.3, MTT, 72 h drug treatment) | fold change (resistance index) (R1.4 (HCT116-RDAC)) | IC50 (R1.4 (HCT116-RDAC); R1.4, MTT, 72 h drug treatment) | fold change (resistance index) (R2.1 (HCT116-RDAC)) | IC50 (R2.1 (HCT116-RDAC)) | fold change (resistance index) (R2.2 (HCT116-RDAC)) | IC50 (R2.2 (HCT116-RDAC); R2.2, MTT, 72 h drug treatment) | IC50 (HCT116; Homo sapiens, HCT-116, 72 h) | IC50 (R1.1 (HCT116-RDAC); Homo sapiens, HCT-116, 72 h) | IC50 (R1.2 (HCT116-RDAC); Homo sapiens, HCT-116, 72 h) | IC50 (R1.3 (HCT116-RDAC); Homo sapiens, HCT-116, 72 h) | IC50 (R1.4 (HCT116-RDAC); Homo sapiens, HCT-116, 72 h) | IC50 (R2.1 (HCT116-RDAC); Homo sapiens, HCT-116) | IC50 (R2.2 (HCT116-RDAC); Homo sapiens, HCT-116, 72 h) | other results |
| --- | --- | --- | --- | --- | --- | --- | --- | --- | --- | --- | --- | --- | --- | --- | --- | --- | --- | --- | --- | --- | --- |
| CCOC(=O)CCNc1cc(N2CCc3ccccc3CC2)nc(-c2ccccn2)n1 [GSK J4] | 2.28 µM | (1.52) fold | 3.45 µM | (1.30) fold | 2.95 µM | (1.39) fold | 3.18 µM | (1.34) fold | 3.05 µM | (2.11) fold | 4.81 µM | (1.87) fold | 4.25 µM |  |  |  |  |  |  |  |  |
| COc1cc2c(cc1-c1c(C)noc1C)ncc1[nH]c(=O)n([C@H](C)c3ccccn3)c12 [I-BET 151, I-BET 151 hydrochloride] |  |  |  |  |  |  |  |  |  |  |  |  |  | 5.23 µM | 2.68 µM | 5.18 µM | 1.6 µM | 3.58 µM | 3.16 µM | 5.4 µM | fold change (sensitivity index) (R1.1 (HCT116-RDAC); IC50 HCT116 / IC50 R1.1): (1.95) fold; fold change (sensitivity index) (R1.2 (HCT116-RDAC); IC50 HCT116 / IC50 R1.2): (1.01) fold; fold change (sensitivity index) (R1.3 (HCT116-RDAC); IC50 HCT116 / IC50 R1.3): (3.28) fold; fold change (sensitivity index) (R1.4 (HCT116-RDAC); IC50 HCT116 / IC50 R1.4): (1.46) fold; fold change (sensitivity index) (R2.1 (HCT116-RDAC); IC50 HCT116 / IC50 R2.1): (1.65) fold; fold change (sensitivity index) (R2.2 (HCT116-RDAC); IC50 HCT116 / IC50 R2.2): (0.97) fold |
| O=C(O)c1ccc(O)c2ncccc12 [IOX1] | 29.6 µM | (1.41) fold | 41.6 µM | (2.15) fold | 63.6 µM | (1.80) fold | 53.2 µM | (1.96) fold | 58.1 µM | (1.70) fold | 50.2 µM | (1.93) fold | 57 µM |  |  |  |  |  |  |  |  |
| C/C=C1\NC(=O)[C@H]2CSSCC/C=C/[C@H](CC(=O)N[C@H](C(C)C)C(=O)N2)OC(=O)[C@H](C(C)C)NC1=O [Romidepsin] |  | (1.14) fold |  | (1.77) fold |  | (1.18) fold |  | (1.14) fold |  | (1.95) fold |  | (2.64) fold |  | 0.0028 µM | 0.0031 µM | 0.0049 µM | 0.0033 µM | 0.0031 µM | 0.0054 µM | 0.0073 µM |  |
| O=c1ncccn1[C@@H]1O[C@H](CO)[C@@H](O)[C@H]1O [Zebularine] |  | (1.19) fold |  | (1.19) fold |  | (1.19) fold |  | (1.19) fold |  | (1.19) fold |  | (1.19) fold |  |  |  |  |  |  | ≥ 100 µM |  | IC50 (HCT116; Homo sapiens, HCT-116, HCT116 parental, MTT, 72 h drug treatment): 84.2 µM; IC50 (R1.1 (HCT116-RDAC); Homo sapiens, HCT-116, R1.1, MTT, 72 h drug treatment): ≥ 100 µM; IC50 (R1.2 (HCT116-RDAC); Homo sapiens, HCT-116, R1.2, MTT, 72 h drug treatment): ≥ 100 µM; IC50 (R1.3 (HCT116-RDAC); Homo sapiens, HCT-116, R1.3, MTT, 72 h drug treatment): ≥ 100 µM; IC50 (R1.4 (HCT116-RDAC); Homo sapiens, HCT-116, R1.4, MTT, 72 h drug treatment): ≥ 100 µM; IC50 (R2.2 (HCT116-RDAC); Homo sapiens, HCT-116, R2.2, MTT, 72 h drug treatment): ≥ 100 µM |
